Measured values reported in patent publication US6737383B1, “Herbicidal oxadiazolidines” (priority 1999, dated 2004).

How the values were obtained:
bedstraw = assay: Test B pre/postemergence bedstraw; assay type: in vivo, Galium aparine; settings: Preemergence
Outline: (§1)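 Response is a visual 0-to-10 score relative to untreated plants, where 0 means no effect and 10 means complete control, taken twelve to sixteen days after application. Treatments went onto soil at planting and onto foliage of 1- to 4-leaf plants, using a surfactant-containing non-phytotoxic solvent.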

blackgrass = assay: Test B pre/postemergence blackgrass; assay type: in vivo, Alopecurus myosuroides
Outline: as §1

surinam grass = assay: Test B pre/postemergence surinam grass; assay type: in vivo, Brachiaria decumbens
Outline: as §1

cocklebur = assay: Test B pre/postemergence cocklebur; assay type: in vivo, Xanthium strumarium
Outline: as §1

corn = assay: Test B pre/postemergence corn; assay type: in vivo, Zea mays
Outline: as §1

crabgrass = assay: Test B pre/postemergence crabgrass; assay type: in vivo, Digitaria sanguinalis
Outline: as §1

giant foxtail = assay: Test B pre/postemergence giant foxtail; assay type: in vivo, Setaria faberii
Outline: as §1

morningglory = assay: Test B pre/postemergence morningglory; assay type: in vivo, Ipomoea hederacea
Outline: as §1

pigweed = assay: Test B pre/postemergence pigweed; assay type: in vivo, Amaranthus retroflexus
Outline: as §1

rape = assay: Test B pre/postemergence rape; assay type: in vivo, Brassica napus
Outline: as §1

soybean = assay: Test B pre/postemergence soybean; assay type: in vivo, Glycine max
Outline: as §1

sugar beet = assay: Test B pre/postemergence sugar beet; assay type: in vivo, Beta vulgaris
Outline: as §1

velvetleaf = assay: Test B pre/postemergence velvetleaf; assay type: in vivo, Abutilon theophrasti
Outline: as §1

wheat = assay: Test B pre/postemergence wheat; assay type: in vivo, Triticum aestivum
Outline: as §1

wild oat = assay: Test B pre/postemergence wild oat; assay type: in vivo, Avena fatua
Outline: as §1

purple nutsedge = assay: Test B pre/postemergence purple nutsedge; assay type: in vivo, Cyperus rotundus
Outline: as §1

[1] = Postemergence, Rate 62 g/ha, scale 0 to 10, 0 is no effect, 10 is complete control
[2] = Postemergence, Rate 125 g/ha, scale of 0 to 10 where 0 is no effect and 10 is complete control
[3] = Postemergence, Rate 250 g/ha, scale of 0 to 10, 0 is no effect, 10 is complete control
[4] = Preemergence, Rate 62 g/ha, scale of 0 to 10 where 0 is no effect and 10 is complete control
[5] = Preemergence, Rate 125 g/ha, scale of 0 to 10 where 0 is no effect and 10 is complete control
[6] = Preemergence, Rate 250 g/ha, scale 0 to 10 (0 no effect, 10 complete control)
[7] = Preemergence, Rate 500 g/ha, scale of 0 to 10 where 0 is no effect and 10 is complete control
[8] = Rate 500 g/ha, Postemergence, scale 0 to 10, 0 is no effect, 10 is complete control

SMILES: CC(C)N(C(=O)n1oc(=O)n(Cc2nnc(Cl)s2)c1=O)c1ccc(Cl)cc1 [Compound 653]
- Bedstraw plant response rating (bedstraw; Rate 62 g/ha, scale of 0 to 10 where 0 is no effect and 10 is complete control): 0
- Bedstraw plant response rating (bedstraw; Rate 125 g/ha, scale of 0 to 10 where 0 is no effect and 10 is complete control): 0
- Plant response rating, Bedstraw (bedstraw; Rate 250 g/ha, scale 0 to 10 (0 no effect, 10 complete control)): 0
- Plant response rating, Bedstraw (bedstraw; Rate 500 g/ha, scale of 0 to 10 where 0 is no effect and 10 is complete control): 0
- Plant response rating, Blackgrass (blackgrass; [1]): 0
- Blackgrass plant response rating (blackgrass; [2]): 0
- Blackgrass plant response rating (blackgrass; [3]): 0
- Blackgrass plant response rating (blackgrass; [4]): 0
- Blackgrass plant response rating (blackgrass; [5]): 0
- Plant response rating, Blackgrass (blackgrass; [6]): 0
- Plant response rating, Blackgrass (blackgrass; [7]): 0
- Blackgrass plant response rating (blackgrass; [8]): 0
- Plant response rating, B. signalgrass (surinam grass; [1]): 0
- Plant response rating, B. signalgrass (surinam grass; [2]): 0
- B. signalgrass plant response rating (surinam grass; [3]): 0
- B. signalgrass plant response rating (surinam grass; [4]): 0
- B. signalgrass plant response rating (surinam grass; [5]): 0
- Plant response rating, B. signalgrass (surinam grass; [6]): 0
- Plant response rating, B. signalgrass (surinam grass; [7]): 0
- B. signalgrass plant response rating (surinam grass; [8]): 2
- Plant response rating, Cocklebur (cocklebur; [1]): 0
- Cocklebur plant response rating (cocklebur; [2]): 0
- Cocklebur plant response rating (cocklebur; [3]): 0
- Cocklebur plant response rating (cocklebur; [4]): 0
- Plant response rating, Cocklebur (cocklebur; [6]): 0
- Plant response rating, Cocklebur (cocklebur; [7]): 0
- Cocklebur plant response rating (cocklebur; [8]): 0
- Plant response rating, Corn (corn; [1]): 0
- Corn plant response rating (corn; [2]): 0
- Corn plant response rating (corn; [3]): 0
- Corn plant response rating (corn; [4]): 0
- Corn plant response rating (corn; [5]): 0
- Plant response rating, Corn (corn; [6]): 0
- Plant response rating, Corn (corn; [7]): 0
- Corn plant response rating (corn; [8]): 0
- Plant response rating, Crabgrass (crabgrass; [1]): 0
- Crabgrass plant response rating (crabgrass; [2]): 0
- Crabgrass plant response rating (crabgrass; [3]): 0
- Crabgrass plant response rating (crabgrass; [4]): 0
- Crabgrass plant response rating (crabgrass; [5]): 2
- Plant response rating, Crabgrass (crabgrass; [6]): 6
- Plant response rating, Crabgrass (crabgrass; [7]): 8
- Crabgrass plant response rating (crabgrass; [8]): 2
- Plant response rating, Giant foxtail (giant foxtail; [1]): 0
- Giant foxtail plant response rating (giant foxtail; [2]): 0
- Giant foxtail plant response rating (giant foxtail; [3]): 2
- Giant foxtail plant response rating (giant foxtail; [4]): 0
- Giant foxtail plant response rating (giant foxtail; [5]): 0
- Plant response rating, Giant foxtail (giant foxtail; [6]): 2
- Plant response rating, Giant foxtail (giant foxtail; [7]): 8
- Giant foxtail plant response rating (giant foxtail; [8]): 7
- Plant response rating, Morningglory (morningglory; [1]): 0
- Morningglory plant response rating (morningglory; [2]): 1
- Morningglory plant response rating (morningglory; [3]): 1
- Morningglory plant response rating (morningglory; [4]): 0
- Morningglory plant response rating (morningglory; [5]): 0
- Plant response rating, Morningglory (morningglory; [6]): 0
- Plant response rating, Morningglory (morningglory; [7]): 0
- Morningglory plant response rating (morningglory; [8]): 1
- Plant response rating, Redroot pigweed (pigweed; [1]): 0
- Redroot pigweed plant response rating (pigweed; [2]): 0
- Redroot pigweed plant response rating (pigweed; [4]): 0
- Redroot pigweed plant response rating (pigweed; [5]): 0
- Plant response rating, Redroot pigweed (pigweed; [6]): 0
- Plant response rating, Redroot pigweed (pigweed; [7]): 3
- Redroot pigweed plant response rating (pigweed; [8]): 0
- Plant response rating, Rape (rape; [1]): 0
- Rape plant response rating (rape; [2]): 0
- Rape plant response rating (rape; [4]): 0
- Rape plant response rating (rape; [5]): 0
- Plant response rating, Rape (rape; [6]): 0
- Plant response rating, Rape (rape; [7]): 0
- Rape plant response rating (rape; [8]): 0
- Plant response rating, Soybean (soybean; [1]): 0
- Soybean plant response rating (soybean; [2]): 0
- Soybean plant response rating (soybean; [4]): 0
- Soybean plant response rating (soybean; [5]): 0
- Plant response rating, Soybean (soybean; [6]): 0
- Plant response rating, Soybean (soybean; [7]): 0
- Soybean plant response rating (soybean; [8]): 0
- Plant response rating, Sugarbeets (sugar beet; [1]): 0
- Sugarbeets plant response rating (sugar beet; [2]): 0
- Sugarbeets plant response rating (sugar beet; [4]): 0
- Sugarbeets plant response rating (sugar beet; [5]): 0
- Plant response rating, Sugarbeets (sugar beet; [6]): 0
- Plant response rating, Sugarbeets (sugar beet; [7]): 0
- Sugarbeets plant response rating (sugar beet; [8]): 0
- Plant response rating, Velvetleaf (velvetleaf; [1]): 0
- Velvetleaf plant response rating (velvetleaf; [2]): 0
- Velvetleaf plant response rating (velvetleaf; [4]): 0
- Velvetleaf plant response rating (velvetleaf; [5]): 0
- Plant response rating, Velvetleaf (velvetleaf; [6]): 0
- Plant response rating, Velvetleaf (velvetleaf; [7]): 0
- Velvetleaf plant response rating (velvetleaf; [8]): 0
- Plant response rating, Wheat (wheat; [1]): 0
- Wheat plant response rating (wheat; [2]): 0
- Wheat plant response rating (wheat; [4]): 0
- Wheat plant response rating (wheat; [5]): 0
- Plant response rating, Wheat (wheat; [6]): 0
- Plant response rating, Wheat (wheat; [7]): 0
- Wheat plant response rating (wheat; [8]): 0
- Plant response rating, Wild oats (wild oat; [1]): 0
- Wild oats plant response rating (wild oat; [2]): 0
- Wild oats plant response rating (wild oat; [4]): 0
- Wild oats plant response rating (wild oat; [5]): 0
- Plant response rating, Wild oats (wild oat; [6]): 0
- Plant response rating, Wild oats (wild oat; [7]): 2
- Wild oats plant response rating (wild oat; [8]): 0
- Plant response rating, Nutsedge (purple nutsedge; [1]): 0
- Nutsedge plant response rating (purple nutsedge; [2]): 0
- Nutsedge plant response rating (purple nutsedge; [4]): 0
- Plant response rating, Nutsedge (purple nutsedge; [7]): 0
- Nutsedge plant response rating (purple nutsedge; [8]): 0
